The source of these data is patent US11458152B2, “Use of agarobiose or agarooligosaccharide having anticariogenic activity” (Korea University Research and Business Foundation, priority 2016, dated 2022).

For assay [1], the system named is Streptococcus mutans. Nature of the assay: Growth of Streptococcus mutans under single carbon source condition (Example 6). The note with it: 10 g/L as single carbon source in minimal medium, cultured 14 hours. It is filed as cell-based, Streptococcus mutans ATCC 25175. As for the experimental part:
A strain used in the present experiment was Streptococcus mutans ATCC 25175. Streptococcus mutans ATCC 25175 was pre-cultured in a brain-heart infusion (BHI) medium for 8 hours, and was washed twice with a 2 mM potassium phosphate buffer, and then main-cultured in a minimal medium prepared with reference to a previously reported document (Fujiwara et al (1978) Arch Oral Biol. 23, 601-602) at 37° C. The minimal medium contains, in a 50 mM Tris-HCl buffer (pH 7.4), 2 g/L of L-glutamic acid, 0.2 g/L of cysteine hydrochloride, 0.9 g/L of L-leucine, 1 g/L of ammonium chloride, 3.5 g/L of potassium hydrogen phosphate, 1.5 g/L of potassium dihydrogen phosphate, 4.2 g/L of sodium hydrogen carbonate, 1.2 g/L of magnesium sulfate heptahydrate, 0.02 g/L of manganese chloride tetrahydrate, 0.02 g/L of iron sulfate heptahydrate, 0.6 g/L of sodium pyruvate, 1 mg/L of riboflavin, 0.5 mg/L of thiamine hydrochloride, 0.1 mg/L of biotin, 1 mg/L of nicotinic acid, 0.1 mg/L of p-aminobenzoic acid, 0.5 mg/L of calcium pantothenate, and 1 mg/L of pyridoxine hydrochloride. To verify an effect of inhibiting the growth of Streptococcus mutans under a single carbon source condition, Streptococcus mutans were cultured in a minimal medium containing each of 10 g/L of agarobiose, agarooligosaccharides, glucose, xylitol, and neoagarobiose and a carbon source-free minimal medium. They were main-cultured using the method of Example 5 for 14 hours, and a degree of the cell growth was measured by measuring the absorbance of a culture solution at a wavelength of 600 nm every two hours.

The test system of assay [2] is Streptococcus mutans. The assay can be described thus: Growth inhibition of Streptococcus mutans under mixed carbon source condition, absorbance at 600 nm (Example 7). It is filed as cell-based, Streptococcus mutans ATCC 25175. As for the experimental part: (§1) A strain used in the present experiment was Streptococcus mutans ATCC 25175. Streptococcus mutans ATCC 25175 was pre-cultured in a brain-heart infusion (BHI) medium for 8 hours, and was washed twice with a 2 mM potassium phosphate buffer, and then main-cultured in a minimal medium prepared with reference to a previously reported document (Fujiwara et al (1978) Arch Oral Biol. 23, 601-602) at 37° C. The minimal medium contains, in a 50 mM Tris-HCl buffer (pH 7.4), 2 g/L of L-glutamic acid, 0.2 g/L of cysteine hydrochloride, 0.9 g/L of L-leucine, 1 g/L of ammonium chloride, 3.5 g/L of potassium hydrogen phosphate, 1.5 g/L of potassium dihydrogen phosphate, 4.2 g/L of sodium hydrogen carbonate, 1.2 g/L of magnesium sulfate heptahydrate, 0.02 g/L of manganese chloride tetrahydrate, 0.02 g/L of iron sulfate heptahydrate, 0.6 g/L of sodium pyruvate, 1 mg/L of riboflavin, 0.5 mg/L of thiamine hydrochloride, 0.1 mg/L of biotin, 1 mg/L of nicotinic acid, 0.1 mg/L of p-aminobenzoic acid, 0.5 mg/L of calcium pantothenate, and 1 mg/L of pyridoxine hydrochloride. Streptococcus mutans was cultured, using the method of Example 5, in 200 μl of a minimal medium containing 10 g/L of glucose and agarobiose, agarooligosaccharides, xylitol, or neoagarobiose at various concentrations in a 96-well plate, and growth inhibitory effects thereof were observed by measuring absorbance at a wavelength of 600 nm over time. The treated concentrations of agarobiose, agarooligosaccharides, xylitol, and neoagarobiose were between 0 g/L and 20 g/L.

Assay [3] deals with Streptococcus mutans. Nature of the assay: Acid production of Streptococcus mutans under mixed carbon source condition, extracellular glucose and lactic acid by HPLC (Example 8). It is filed as cell-based, Streptococcus mutans ATCC 25175. As for the experimental part:
as §1, with “hydrochloride.” for “hydrochloride. Streptococcus mutans was cultured, using the method of Example 5, in 200 μl of a minimal medium containing 10 g/L of glucose and agarobiose, agarooligosaccharides, xylitol, or neoagarobiose at various concentrations in a 96-well plate, and growth inhibitory effects thereof were observed by measuring absorbance at a wavelength of 600 nm over time. The treated concentrations of agarobiose, agarooligosaccharides, xylitol, and neoagarobiose were between 0 g/L and 20 g/L.”
To confirm an effect of agarobiose, agarooligosaccharides, xylitol, or neoagarobiose on acid production of Streptococcus mutans, Streptococcus mutans were cultured, using the method of Example 5, in 200 μl of a minimal medium containing 10 g/L of glucose and 0 g/L, 2.5 g/L, 5 g/L, 10 g/L, or 20 g/L of agarobiose, agarooligosaccharides, or neoagarobiose, or 0 g/L, 5 g/L, 10 g/L, or 20 g/L of xylitol in a 96-well plate. After 14 hours, concentrations of extracellular glucose and produced lactic acid were measured by HPLC. A column used for HPLC analysis was Aminex HPX-87H. 0.01 N of sulfuric acid as a mobile phase was flowed at a rate of 0.5 mL/min and 65° C.

The subject of assay [4] is Streptococcus mutans. The note with it: literature (Trahan L et al); cited from earlier work.
Where [5] appears, read: 2.5 g/L in 10 g/L glucose, 14 hours.
[6] abbreviates: 10 g/L in 10 g/L glucose, 14 hours.
The mark [7] stands for this setting: 20 g/L in 10 g/L glucose, 14 hours.
Setting [8] is: mixed carbon source, 10 g/L glucose.

Bounds are passed on as bounds.

Turning to `OC[C@H]1O[C@@H](O[C@H]2[C@H]3OC[C@@H]2OC(O)[C@H]3O)[C@H](O)[C@@H](O)[C@H]1O` (mixture of isomers) [agarobiose], the “growth of Streptococcus mutans” value in the assay with Streptococcus mutans [1] is “no growth”. Moreover, the “absorbance value after 14 hours of culture” value in the assay with Streptococcus mutans [2] (2.5 g/L in 10 g/L glucose) is on record as 0.55. The “degree of inhibition of growth compared with 10 g/L of xylitol” value in the assay on Streptococcus mutans [2] (5 g/L in 10 g/L glucose) is recorded as “greater”. Besides, the “effect on inhibiting the growth of Streptococcus mutans compared with xylitol” value with Streptococcus mutans [2] (same concentration, 10 g/L glucose) was “greater”. Further, the “final absorbance value compared with xylitol” value in the assay on Streptococcus mutans [2] (same concentration, after 14 hours of culture, 10 g/L glucose) was “lower”. Also, in the assay on Streptococcus mutans [3] (setting [5]), the “concentration of consumed glucose” value turned out to be 6.78 g/L, the “concentration of produced lactic acid” value is listed as 5.65 g/L, the “decrease of consumed glucose compared to 0 g/L” value (from here on “decrease of consumed glucose”) amounted to 19% and the “decrease of produced lactic acid compared to 0 g/L” value (from here on “decrease of produced lactic acid”) stood at 32%. In the assay with Streptococcus mutans [3] (5 g/L in 10 g/L glucose), the “degree of inhibition of acid production compared with 10 g/L of xylitol” value was “greater”. Moreover, in the assay on Streptococcus mutans [3] (setting [6]), the “amount of consumed glucose” value is 4.05 g/L, the “amount of produced lactic acid” value is reported as 3.25 g/L, the “decrease of consumed glucose” value amounted to 51.5% and the “decrease of produced lactic acid” value was 60%. In the assay with Streptococcus mutans [3] (setting [7]), the “decrease of consumed glucose” value is given as 58.76% and the “decrease of produced lactic acid” value is recorded as 68%.

Take `OC[C@H]1OC(O)[C@H](O)[C@@H](O[C@@H]2O[C@H]3CO[C@@H]([C@@H]2O)[C@@H]3O)[C@H]1O` (stereo partly shown) [neoagarobiose, reference compound]: in the assay on Streptococcus mutans [1], the “growth of Streptococcus mutans” value is given as “no growth”. Further, the “inhibition of the growth of Streptococcus mutans” value in the assay with Streptococcus mutans [2] (setting [8]) is listed as “unable to inhibit”. The “final absorbance value compared to 0 g/L” value in the assay on Streptococcus mutans [2] (up to 20 g/L in 10 g/L glucose) is “did not exhibit significant differences”. For the same compound, in the assay on Streptococcus mutans [2] (up to 20 g/L, minimal medium containing 10 g/L glucose), the “change in the growth of Streptococcus mutans” value is recorded as “no significant change”. The “inhibition of acid production of Streptococcus mutans” value in the assay on Streptococcus mutans [3] (setting [8]) was “unable to inhibit”. For the same compound, in the assay with Streptococcus mutans [3] (up to 20 g/L in 10 g/L glucose), the “amount of consumed glucose compared to 0 g/L” value was “did not exhibit significant differences” and the “amount of produced lactic acid compared to 0 g/L” value was “did not exhibit significant differences”.

Turning to `OC[C@@H](O)[C@H](O)[C@@H](O)CO` [xylitol, reference compound], in the assay with Streptococcus mutans [1], the “growth of Streptococcus mutans” value was “no growth”. In addition, the “absorbance value at 600 nm after culturing for 14 hours” value in the assay with Streptococcus mutans [2] (20 g/L in 10 g/L glucose) was found to be 0.595. Moreover, the “decrease of produced lactic acid” value is 30% in the assay on Streptococcus mutans [3] (5 g/L in 10 g/L glucose, 14 hours); 35% in the assay on Streptococcus mutans [3] (setting [6]); 35% with Streptococcus mutans [3] (setting [7]). Further, the “decrease of consumed glucose” value in the assay on Streptococcus mutans [3] (setting [6]) worked out at 23.98%; in the assay on Streptococcus mutans [3] (setting [7]) it was 36.41%. Moreover, the “concentration needed to inhibit the growth of Streptococcus mutans” value with Streptococcus mutans [4] was at least 10 g/L.
